According to patent US10064865B2, “Composition comprising phosphodiesterase type 5 inhibitor for inhibiting apoptosis of nerve cells” (ARIBIO INC., priority 2012, dated 2018):
Marks after values point to notes of the source that are not given here.

Legend:
Type in all cases: in vivo, Sprague-Dawley (SD) rats
[1] = tested on: neuron apoptosis-operated rats; test: Example 1 forelimb placing test
Description: Sensorimotor function was evaluated by use of limb placing de Ryck M et al., Stroke. 20:1383-90(1989)) and body swing (Borlongan and Sanberg, J Neurosci. 15:5372-8(1995)) tests. These tests were performed one day before neuron apoptosis to obtain a baseline and then at 1, 3, 7, 14, 21 and 28 days after neuron apoptosis. Behavioral tests were done before drug administration on days when both were scheduled. The investigator performing the surgery and behavioral assessments was blinded to treatment assignment.
(§1) Limb placing test: Forelimb and hindlimb placement were assessed independently. For the forelimb placing test, the rats were held by their torso with their forepaws hanging free and moved slowly toward the edge of a tabletop, stopping short of touching the vibrissae (for vision-induced placing), touching the vibrissae (for vibrissae-induced placing), making light contact with the front of the forepaw to the edge of the tabletop (for tactile-induced placing), and pressing the forepaws to the edge of the table with increased pressure (for proprioceptive-induced placing). Hindlimb placing was conducted in the same manner as above but with tactile and proprioceptive stimulation applied to the front/top of each hindlimb. Each limb for placing in response to visual, vibrissae, tactile, and proprioceptive stimulation are scored in the following manner (A total of 12 points in forelimb placing test and 6 points in hindlimb placing test means maximal neurological deficit, and 0 points means normal performance):
Normal performance=0 points;
Performance with unilateral limb=1 point;
Performance with a delay (2 seconds) and/or incomplete=2 point;
(§2) All data were expressed as mean±standard deviation (S.D.) of ten rats. Multiple comparison tests for different dose groups were conducted. Variance homogeneity was examined using the Levene test (Levene A, Clin Otalary, 1981; 6:145-51). […] Statistical analyses were conducted using SPSS (Release 14K, SPSS Inc., USA; Ludbrook, Clin Exp Pharmacol Physiol, 1997; 24:294-6). In addition, the percent changes between neuron apoptosis control and mirodenafil treated rats were calculated to help the understanding of the efficacy of test material as follow equation 3. Percentage changes as compared with neuron apoptosis control (%)=[((Data of mirodenafil treated groups−Data of neuron apoptosis control)/Data of neuron apoptosis control)×100] [EQUATION 3]

[2] = tested on: neuron apoptosis-operated rats; test: Example 2 forelimb placing test
Description: Sensorimotor function was evaluated by use of limb placing (de Ryck M et al., Stroke. 20:1383-90(1989)) and body swing (Borlongan and Sanberg, J Neurosci. 15:5372-8(1995)) tests. These tests were performed at 1 and 28 days after neuron apoptosis. The investigator performing the surgery and behavioral assessments was blinded to treatment assignment.
as §1, with “manner: normal performance=0 points; performance with unilateral limb=1 point; performance with a delay (2 seconds) and/or incomplete=2 point; no performance=3 points. A” for “manner (A”, “performance.” for “performance):”
All data were expressed as mean±standard deviation (S.D.) of ten rats. Multiple comparison tests for different dose groups were conducted. Variance homogeneity was examined using the Levene test (Levene A, Clin Otalary, 1981; 6:145-51). […] In addition, the percent changes as compared with neuron apoptosis control and mirodenafil treated rats were calculated to help the understanding of the efficacy of test substances as follow Equation 6 and 7. […]

[3] = Example 1 body weight measurements; conditions: for Body weights at 1 day before surgery / Body weights at surgery [A]: before treatment, in g
Description: Changes of body weight were measured at 1 day before neuron apoptosis, the day of neuron apoptosis, 1, 7 14, 21, 28 and 29 days after neuron apoptosis using an automatic electronic balance. To reduce the individual differences, the body weight gains after neuron apoptosis and continuous oral treatment of materials were calculated as follows. Body weight gains (g) during 29 days after neuron apoptosis=(Body weight at the 29 days after neuron apoptosis−body weight at the day of neuron apoptosis) [EQUATION 2]
as §2

CCCOc1ccc(S(=O)(=O)N2CCN(CCO)CC2)cc1-c1nc2c(CCC)cn(CC)c2c(=O)[nH]1 [Mirodenafil, mirodenafil]
Forelimb placing test score ([1]; 0.5 mg/kg group, day 1 after operation (before drug administration)): 12.00 ± 0.00^d | Forelimb placing test score ([1]; 0.5 mg/kg group, day −1 (baseline)): 0.70 ± 0.67 | Forelimb placing test score ([1]; 0.5 mg/kg s.c. once a day, day 3 after operation): 8.00 ± 1.15^a | Forelimb placing test score ([1]; 0.5 mg/kg s.c. once a day, day 7 after operation): 7.80 ± 1.55^a | Forelimb placing test score ([1]; 0.5 mg/kg s.c. once a day, day 14 after operation): 6.80 ± 1.14^ac | Forelimb placing test score ([1]; 0.5 mg/kg s.c. once a day, day 21 after operation): 6.40 ± 1.17^a | Forelimb placing test score ([1]; 0.5 mg/kg s.c. once a day, day 28 after operation): 5.40 ± 1.07^a | forelimb placing test scores, change as compared with neuron apoptosis control ([1]; 0.5 mg/kg, 3 days after surgery): −3.61% | forelimb placing test scores, change as compared with neuron apoptosis control ([1]; 0.5 mg/kg, 7 days after surgery): −10.34% | forelimb placing test scores, change as compared with neuron apoptosis control ([1]; 0.5 mg/kg, 14 days after surgery): −12.82% | forelimb placing test scores, change as compared with neuron apoptosis control ([1]; 0.5 mg/kg, 21 days after surgery): −11.11% | forelimb placing test scores, change as compared with neuron apoptosis control ([1]; 0.5 mg/kg, 28 days after surgery): −12.90% | Forelimb placing test score ([1]; 1 mg/kg group, day 1 after operation (before drug administration)): 12.00 ± 0.00^d | Forelimb placing test score ([1]; 1 mg/kg group, day −1 (baseline)): 0.70 ± 0.48 | Forelimb placing test score ([1]; 1 mg/kg s.c. once a day, day 3 after operation): 6.80 ± 1.23^ab | Forelimb placing test score ([1]; 1 mg/kg s.c. once a day, day 7 after operation): 6.10 ± 1.20^ab | Forelimb placing test score ([1]; 1 mg/kg s.c. once a day, day 14 after operation): 5.30 ± 1.06^ab | Forelimb placing test score ([1]; 1 mg/kg s.c. once a day, day 21 after operation): 4.20 ± 1.23^ab | Forelimb placing test score ([1]; 1 mg/kg s.c. once a day, day 28 after operation): 2.70 ± 1.06^ab | forelimb placing test scores, change as compared with neuron apoptosis control ([1]; 1 mg/kg, 3 days after surgery): −18.07% | forelimb placing test scores, change as compared with neuron apoptosis control ([1]; 1 mg/kg, 7 days after surgery): −29.89% | forelimb placing test scores, change as compared with neuron apoptosis control ([1]; 1 mg/kg, 14 days after surgery): −32.05% | forelimb placing test scores, change as compared with neuron apoptosis control ([1]; 1 mg/kg, 21 days after surgery): −41.67% | forelimb placing test scores, change as compared with neuron apoptosis control ([1]; 1 mg/kg, 28 days after surgery): −56.45% | Forelimb placing test score ([1]; 2 mg/kg group, day 1 after operation (before drug administration)): 12.00 ± 0.00^d | Forelimb placing test score ([1]; 2 mg/kg group, day −1 (baseline)): 0.60 ± 0.70 | Forelimb placing test score ([1]; 2 mg/kg s.c. once a day, day 3 after operation): 6.20 ± 0.92^ab | Forelimb placing test score ([1]; 2 mg/kg s.c. once a day, day 7 after operation): 5.70 ± 0.67^ab | Forelimb placing test score ([1]; 2 mg/kg s.c. once a day, day 14 after operation): 4.70 ± 0.67^ab | Forelimb placing test score ([1]; 2 mg/kg s.c. once a day, day 21 after operation): 4.10 ± 0.88^ab | Forelimb placing test score ([1]; 2 mg/kg s.c. once a day, day 28 after operation): 2.60 ± 0.84^ab | forelimb placing test scores, change as compared with neuron apoptosis control ([1]; 2 mg/kg, 3 days after surgery): −25.30% | forelimb placing test scores, change as compared with neuron apoptosis control ([1]; 2 mg/kg, 7 days after surgery): −34.48% | forelimb placing test scores, change as compared with neuron apoptosis control ([1]; 2 mg/kg, 14 days after surgery): −39.74% | forelimb placing test scores, change as compared with neuron apoptosis control ([1]; 2 mg/kg, 21 days after surgery): −43.06% | forelimb placing test scores, change as compared with neuron apoptosis control ([1]; 2 mg/kg, 28 days after surgery): −58.06% | forelimb placing test scores at 28 days, change as compared with neuron apoptosis control ([2]; 1 mg/kg from 24 hrs after surgery): −57.41% | forelimb placing test scores at 28 days, change as compared with neuron apoptosis control ([2]; 1 mg/kg from 72 hrs after surgery): −29.63% | forelimb placing test scores at 28 days, change as compared with neuron apoptosis control ([2]; 1 mg/kg from 168 hrs after surgery): −11.11% | Body weights at 1 day before surgery ([3]; 0.5 mg/kg group): 540.70 ± 23.66 | Body weights at surgery [A] ([3]; 0.5 mg/kg group): 510.20 ± 26.08 | body weight gains during 29 days, change as compared with neuron apoptosis control ([3]; 1 mg/kg): 218.52% | Body weights at 1 day before surgery ([3]; 1 mg/kg group): 539.70 ± 27.54 | Body weights at surgery [A] ([3]; 1 mg/kg group): 510.30 ± 28.32 | body weight gains during 29 days, change as compared with neuron apoptosis control ([3]; 2 mg/kg): 155.74% | Body weights at 1 day before surgery ([3]; 2 mg/kg group): 543.30 ± 26.39 | Body weights at surgery [A] ([3]; 2 mg/kg group): 513.40 ± 27.21
